Data as given in ChEMBL document CHEMBL1201862, “PubChem BioAssay data set” (2004).
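Dose response: 5 concentrations. Exposure: 48 h. Format: 96-well plates. Endpoint: linear interpolation; highest concentration if not reached. At the GI50, growth is halved.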 Calls of active or inactive are those of the source. Cut-off read from the data, not from the text of the source: active = GI50 up to about 1.1 µM and inactive = higher.

Columns and labels:
Assay in all cases: NCI anticancer screen, dose series, 48 h
HCT-15 = system: HCT-15
RPMI-8226 = system: RPMI-8226
MDA-MB-231 = system: MDA-MB-231
NCI/ADR-RES = system: NCI/ADR-RES
HOP-92 = system: HOP-92
RXF 393 = system: RXF 393
KM12 = system: KM12
MDA-N = system: MDA-N
MCF7 = system: MCF7
Hs-578T = system: Hs-578T
CAKI-1 = system: CAKI-1
SNB-19 = system: SNB-19
SN12C = system: SN12C
SK-MEL-5 = system: SK-MEL-5
Malme-3M = system: Malme-3M
SR = system: SR

Compound	GI50 (HCT-15) [µM]	GI50 (RPMI-8226)	GI50 (MDA-MB-231)	GI50 (NCI/ADR-RES)	GI50 (HOP-92)	GI50 (RXF 393)	GI50 (KM12)	GI50 (MDA-N)	GI50 (MCF7)	GI50 (Hs-578T)	GI50 (CAKI-1)	GI50 (SNB-19)	GI50 (SN12C)	GI50 (SK-MEL-5)	GI50 (Malme-3M)	GI50 (SR)
CCOC(=O)CNC(=O)C(CCC(=O)N(C)O)NC(=O)CCC(N)C(=O)O (configuration not stated)	> 100	> 100 µM (inactive)	> 100 µM (inactive)	> 100 µM (inactive)	> 100 µM (inactive)	> 100 µM (inactive)	> 100 µM (inactive)	> 100 µM (inactive)	> 100 µM (inactive)	> 100 µM (inactive)	> 100 µM (inactive)	> 100 µM (inactive)	> 100 µM (inactive)	> 100 µM (inactive)		
COc1ccc([C@H]2C=[N+]([O-])O[C@H](OC3CCCC3)[C@@H]2OC(C)=O)cc1OC	29.2	23.5 µM (inactive)	32.7 µM (inactive)	31.8 µM (inactive)	14.3 µM (inactive)	13.3 µM (inactive)	26.4 µM (inactive)	37.8 µM (inactive)	22.3 µM (inactive)	29.9 µM (inactive)	14 µM (inactive)	> 100 µM (inactive)		13.1 µM (inactive)	25.9 µM (inactive)	41.8 µM (inactive)
CCOC(=O)c1csc(NC(=O)CCCC#N)n1	> 100	> 100 µM (inactive)	> 100 µM (inactive)	> 100 µM (inactive)	> 100 µM (inactive)	> 100 µM (inactive)	> 100 µM (inactive)	> 100 µM (inactive)	> 100 µM (inactive)	> 100 µM (inactive)	> 100 µM (inactive)	> 100 µM (inactive)		> 100 µM (inactive)		> 100 µM (inactive)
Cc1ccc([N+](=O)[O-])cc1S(=O)(=O)Nc1ccc(C2=NNC(c3cccs3)C2)cc1 (configuration not stated)	17	16.6 µM (inactive)		26.5 µM (inactive)	60 µM (inactive)	13.6 µM (inactive)	16.5 µM (inactive)	34.9 µM (inactive)	13.7 µM (inactive)	58.2 µM (inactive)	30.5 µM (inactive)	28.8 µM (inactive)	29.2 µM (inactive)	17.4 µM (inactive)	23.4 µM (inactive)	20 µM (inactive)
CC(NC(=O)Cc1ccccc1)NC(=O)C(C)C(=O)NCc1ccccc1 (configuration not stated)	> 100	> 100 µM (inactive)	46.8 µM (inactive)	> 100 µM (inactive)	31.4 µM (inactive)	42.6 µM (inactive)	> 100 µM (inactive)	> 100 µM (inactive)	> 100 µM (inactive)	30.3 µM (inactive)	81.7 µM (inactive)	23.7 µM (inactive)	53.5 µM (inactive)	> 100 µM (inactive)	> 100 µM (inactive)	> 100 µM (inactive)
O=C(NNC(=S)NCc1ccccc1)C12CC3CC(CC(C3)C1)C2	53.3	45.1 µM (inactive)	> 100 µM (inactive)	89.1 µM (inactive)		89.1 µM (inactive)	40.6 µM (inactive)	67.9 µM (inactive)	61.4 µM (inactive)	> 100 µM (inactive)		> 100 µM (inactive)	> 100 µM (inactive)		> 100 µM (inactive)	9.33 µM (inactive)
NS(=O)(=O)c1ccc(NC(=S)NC=C2C(=O)c3ccccc3C2=O)cc1	38.9	36.4 µM (inactive)	23.7 µM (inactive)		23.7 µM (inactive)	43.6 µM (inactive)	> 100 µM (inactive)	> 100 µM (inactive)	17.9 µM (inactive)	14.4 µM (inactive)	86.5 µM (inactive)	> 100 µM (inactive)	> 100 µM (inactive)	47 µM (inactive)	> 100 µM (inactive)	42 µM (inactive)
CCN(CC)CCN(C(=O)C(C)(C)C)c1ccccc1N	> 100	> 100 µM (inactive)		> 100 µM (inactive)	> 100 µM (inactive)	> 100 µM (inactive)	> 100 µM (inactive)	> 100 µM (inactive)	> 100 µM (inactive)		> 100 µM (inactive)	> 100 µM (inactive)	> 100 µM (inactive)	> 100 µM (inactive)	> 100 µM (inactive)	> 100 µM (inactive)
O=c1[nH]c2c(c(=O)[nH]1)SSC2	27.7	0.838 µM (active)	2.18 µM (inactive)	2.75 µM (inactive)	2.51 µM (inactive)	14.5 µM (inactive)	17.9 µM (inactive)	1.66 µM (inactive)	17.4 µM (inactive)	24.2 µM (inactive)	18.9 µM (inactive)	25 µM (inactive)	2.75 µM (inactive)	13.8 µM (inactive)	3.9 µM (inactive)	0.275 µM (active)
Nc1cc2nc(O)c(O)nc2cc1N	> 100	> 100 µM (inactive)	> 100 µM (inactive)	> 100 µM (inactive)	> 100 µM (inactive)	> 100 µM (inactive)	> 100 µM (inactive)	> 100 µM (inactive)	> 100 µM (inactive)	> 100 µM (inactive)	> 100 µM (inactive)	> 100 µM (inactive)	> 100 µM (inactive)	> 100 µM (inactive)	> 100 µM (inactive)	> 100 µM (inactive)
Cc1c(Cl)cccc1NC(=O)/C=C/c1ccccc1	> 100	97.9 µM (inactive)	17.7 µM (inactive)		21 µM (inactive)		77.8 µM (inactive)	> 100 µM (inactive)	> 100 µM (inactive)	38.3 µM (inactive)	16.3 µM (inactive)	45.6 µM (inactive)	> 100 µM (inactive)	> 100 µM (inactive)	> 100 µM (inactive)	50.7 µM (inactive)
CSC1NC(c2ccccc2)=C(C#N)C(=O)N1C1OCC(OC(C)=O)C(OC(C)=O)C1OC(C)=O (configuration not stated)	> 100	> 100 µM (inactive)	> 100 µM (inactive)	> 100 µM (inactive)	86.3 µM (inactive)	> 100 µM (inactive)	> 100 µM (inactive)	> 100 µM (inactive)	> 100 µM (inactive)	> 100 µM (inactive)	> 100 µM (inactive)	> 100 µM (inactive)	> 100 µM (inactive)	> 100 µM (inactive)	> 100 µM (inactive)	> 100 µM (inactive)
COc1ccc2c(C)cc(N/N=C/c3sccc3C)nc2c1	6.03	5.69 µM (inactive)	1.43 µM (inactive)	10 µM (inactive)	16.1 µM (inactive)	14.9 µM (inactive)	8.05 µM (inactive)	14.3 µM (inactive)	11.4 µM (inactive)	12.5 µM (inactive)		21.7 µM (inactive)	7.11 µM (inactive)	6.24 µM (inactive)	6.95 µM (inactive)	22.9 µM (inactive)
CO[C@@H]1O[C@H](C(=O)c2ccccc2)[C@H]2OC(C)(C)O[C@@H]12	55.2	> 100 µM (inactive)	79.3 µM (inactive)	74.1 µM (inactive)	> 100 µM (inactive)	> 100 µM (inactive)	> 100 µM (inactive)	> 100 µM (inactive)	> 100 µM (inactive)	83 µM (inactive)	> 100 µM (inactive)	> 100 µM (inactive)	89.7 µM (inactive)	> 100 µM (inactive)		57.8 µM (inactive)
Clc1ccc2c(c1)CC1C[N+]3=C(CCCCC3)C1=C2 (configuration not stated)	> 100		33 µM (inactive)	> 100 µM (inactive)	7.1 µM (inactive)	> 100 µM (inactive)	50.5 µM (inactive)	94.2 µM (inactive)	64 µM (inactive)	85.3 µM (inactive)	> 100 µM (inactive)	51.8 µM (inactive)	80.4 µM (inactive)	30.3 µM (inactive)	63 µM (inactive)	
O=C(O)CCC(NC(=O)c1ccc(Nc2nc3cc(C(F)(F)F)ccc3nc2C(=O)O)cc1)C(=O)O (configuration not stated)	> 100	> 100 µM (inactive)	> 100 µM (inactive)	> 100 µM (inactive)	> 100 µM (inactive)	> 100 µM (inactive)	> 100 µM (inactive)	> 100 µM (inactive)	> 100 µM (inactive)	> 100 µM (inactive)		> 100 µM (inactive)		79.8 µM (inactive)	> 100 µM (inactive)	> 100 µM (inactive)
COc1ccc(C2=Nc3c(nc(OC)[nH]c3=O)NC(c3ccccc3)C2)cc1 (configuration not stated)		32.7 µM (inactive)	20.7 µM (inactive)	24.8 µM (inactive)	32.3 µM (inactive)	29.7 µM (inactive)	18.2 µM (inactive)	27 µM (inactive)	21.9 µM (inactive)		52 µM (inactive)	30.5 µM (inactive)	23.2 µM (inactive)	18.4 µM (inactive)	> 100 µM (inactive)	53.1 µM (inactive)
CCOC(=O)c1nc2cc(C(F)(F)F)ccc2nc1Oc1ccc(F)cc1	> 100	> 100 µM (inactive)	> 100 µM (inactive)	> 100 µM (inactive)	87.3 µM (inactive)	54 µM (inactive)	> 100 µM (inactive)	> 100 µM (inactive)	> 100 µM (inactive)	> 100 µM (inactive)	> 100 µM (inactive)	> 100 µM (inactive)	> 100 µM (inactive)	> 100 µM (inactive)	> 100 µM (inactive)	> 100 µM (inactive)
O=c1[nH]c(Nc2cccc(C(F)(F)F)c2)nc2[nH]cnc12	> 100	> 100 µM (inactive)	> 100 µM (inactive)	> 100 µM (inactive)	> 100 µM (inactive)	> 100 µM (inactive)	> 100 µM (inactive)	82.2 µM (inactive)	> 100 µM (inactive)	75.7 µM (inactive)	> 100 µM (inactive)	> 100 µM (inactive)	> 100 µM (inactive)	40.1 µM (inactive)	> 100 µM (inactive)	> 100 µM (inactive)
